Counter-ions that a name gives are not always drawn.

Usually melting point stands for the temperature, or range, at which the solid turns liquid. The molecule `O=C(NC1CCC(c2cc(Nc3cccc(C(F)(F)F)c3)n[nH]2)C1)c1ccccn1` (centres unmarked) (as salt: HCl) [Example 31, Pyridine-2-carboxylic acid {3-[5-(3-trifluoromethyl-phenylamino)-2H-pyrazol-3-yl]-cyclopentyl}-amide] showed a melting point of 180.1 °C.

`O=C(NC1CCC(c2cc(Nc3cccc(C(F)(F)F)c3)n[nH]2)C1)C1CCC1` (centres unmarked) (as salt: HCl) [Example 33, Cyclobutanecarboxylic acid {3-[5-(3-trifluoromethyl-phenylamino)-2H-pyrazol-3-yl]-cyclopentyl}-amide] registered a melting point of 232.4 °C.

`CC(C)(C)C(=O)NC1CCC(c2cc(Nc3cccc(C(F)(F)F)c3)n[nH]2)C1` (centres unmarked) (as salt: HCl) [Example 34, 2,2-Dimethyl-N-{3-[5-(3-trifluoromethyl-phenylamino)-2H-pyrazol-3-yl]-cyclopentyl}-propionamide] gave a melting point of 249.2 °C.

With `COc1cccc(C(=O)N[C@H]2C[C@@H](c3cc(NC(=O)Cc4cccc5ccccc45)n[nH]3)C2)c1` (as salt: HCl) [Example 44, 3-Methoxy-N-{cis-3-[5-(2-naphthalen-1-yl-acetylamino)-2H-pyrazol-3-yl]-cyclobutyl}-benzamide], the melting point stood at 124.8 °C.

As to `O=C(Cc1cccc2ccccc12)Nc1cc([C@H]2C[C@@H](NC(=O)c3cccc(C(F)(F)F)c3)C2)[nH]n1` (as salt: HCl) [Example 45, N-{cis-3-[5-(2-Naphthalen-1-yl-acetylamino)-2H-pyrazol-3-yl]-cyclobutyl}-3-trifluoromethyl-benzamide], the melting point amounted to 142.8 °C.

On to `CC(C)C(=O)N[C@H]1C[C@@H](c2cc(NC(=O)Cc3cccc4ccccc34)n[nH]2)C1` (as salt: HCl) [Example 46, N-{cis-3-[5-(2-Naphthalen-1-yl-acetylamino)-2H-pyrazol-3-yl]-cyclobutyl}-isobutyramide], for which the melting point stood at 130.6 °C.

For the molecule `O=C(Cc1cccc2ccccc12)Nc1cc([C@H]2C[C@@H](NC(=O)C3CC3c3ccccc3)C2)[nH]n1` (stereo partly drawn) (as salt: HCl) [Example 47, 2-Phenyl-cyclopropanecarboxylic acid {cis-3-[5-(2-naphthalen-1-yl-acetylamino)-2H-pyrazol-3-yl]-cyclobutyl}-amide], the melting point is 139.8 °C.

`CC(=O)N[C@H]1C[C@@H](c2cc(NC(=O)Cc3cccc4ccccc34)n[nH]2)C1` (as salt: HCl) [Example 48, N-[5-(cis-3-Acetylamino-cyclobutyl)-1H-pyrazol-3-yl]-2-naphthalen-1-yl-acetamide] came in with a melting point of 209.4 °C.

Consider `O=C(Cc1cccc2ccccc12)Nc1cc([C@H]2C[C@@H](NC(=O)c3ccccc3)C2)[nH]n1` (as salt: HCl) [Example 49, N-{cis-3-[5-(2-Naphthalen-1-yl-acetylamino)-2H-pyrazol-3-yl]-cyclobutyl}-benzamide], for which the melting point amounted to 194 °C.

`O=C(Cc1cccc2ccccc12)Nc1cc([C@H]2C[C@@H](NC(=O)CC3CC3)C2)[nH]n1` (as salt: HCl) [Example 50, 2-Cyclopropyl-N-{cis-3-[5-(2-naphthalen-1-yl-acetylamino)-2H-pyrazol-3-yl]-cyclobutyl}-acetamide] yielded a melting point of 93.2 °C.

`O=C(Cc1cccc2ccccc12)Nc1cc([C@H]2C[C@@H](NC(=O)c3ccc4ccccc4n3)C2)[nH]n1` (as salt: HCl) [Example 52, Quinoline-2-carboxylic acid {cis-3-[5-(2-naphthalen-1-yl-acetylamino)-2H-pyrazol-3-yl]-cyclobutyl}-amide] registered a melting point of 200.3 °C.

`COc1ccc(C(=O)N[C@H]2C[C@@H](c3cc(NC(=O)Cc4cccc5ccccc45)n[nH]3)C2)cc1` (as salt: HCl) [Example 54, 4-Methoxy-N-{cis-3-[5-(2-naphthalen-1-yl-acetylamino)-2H-pyrazol-3-yl]-cyclobutyl}-benzamide] came in with a melting point of 175.6 °C.

Turning to `O=C(Cc1cccc2ccccc12)Nc1cc([C@H]2C[C@@H](NC(=O)c3cccc([N+](=O)[O-])c3)C2)[nH]n1` (as salt: HCl) [Example 55, N-{cis-3-[5-(2-Naphthalen-1-yl-acetylamino)-2H-pyrazol-3-yl]-cyclobutyl}-3-nitro-benzamide], the melting point turned out to be 123.5 °C.

`O=C(Cc1cccc2ccccc12)Nc1cc([C@H]2C[C@@H](Oc3nc4ccccc4o3)C2)[nH]n1` (as salt: HCl) [Example 63, N-{5-[cis-3-(Benzooxazol-2-yloxy)-cyclobutyl]-1H-pyrazol-3-yl}-2-naphthalen-1-yl-acetamide] gave a melting point of 142 °C.

These data come from patent US20020103185A1, “Pyrazole derivatives” (priority 2000, published 2002).
